According to patent publication US20060183716A1, “2-Methylene-19-nor-(20S-24S)-1alpha,25-dihydroxyvitamin D2” (Wisconsin Alumni Research Foundation, priority 2005, published 2006):

How the values were obtained:
cell differentiation = conditions: as described in the '352, '861 and '622 patents; cited from earlier work
vitamin D receptors = biological target: T1, vitamin D receptors (Homo sapiens, UniProt P11473); conditions: as described in the '352, '861 and '622 patents; cited from earlier work
T1 sequence (P11473 1-427): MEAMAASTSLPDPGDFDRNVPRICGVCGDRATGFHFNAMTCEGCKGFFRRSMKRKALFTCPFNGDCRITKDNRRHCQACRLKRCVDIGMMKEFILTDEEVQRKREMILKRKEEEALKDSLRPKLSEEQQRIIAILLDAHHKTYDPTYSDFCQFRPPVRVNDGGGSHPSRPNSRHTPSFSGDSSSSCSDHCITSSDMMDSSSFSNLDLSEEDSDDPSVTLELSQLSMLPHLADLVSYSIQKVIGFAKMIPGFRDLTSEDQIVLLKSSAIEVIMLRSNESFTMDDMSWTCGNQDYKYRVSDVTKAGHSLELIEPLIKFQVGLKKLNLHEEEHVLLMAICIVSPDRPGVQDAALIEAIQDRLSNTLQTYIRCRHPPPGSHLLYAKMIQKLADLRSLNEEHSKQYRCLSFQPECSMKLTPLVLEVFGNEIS

calcemic activity = conditions: as described in the '352, '861 and '622 patents; cited from earlier work
[1] = test system: bone calcium mobilization; test: Bone calcium mobilization (serum calcium); format: in vivo, Sprague-Dawley rats; conditions: rats on 0.02% Ca diet, four consecutive ip doses; compared with 1,25(OH)2D3; FIG. 4
Description: (§1) FIG. 4 is a bar graph comparing the bone calcium mobilization activity of (20S/24S) 2-MD2 with that of 1,25(OH)2D3. Male, weanling Sprague-Dawley rats were placed on Diet 11 (0.47% Ca) diet +AEK for one week followed by Diet 11 (0.02% Ca) +AEK for 3 weeks. The rats were then switched to a diet containing 0.47% Ca for one week followed by two weeks on a diet containing 0.02% Ca. Dose administration began during the last week on 0.02% calcium diet. Four consecutive ip doses were given approximately 24 hours apart. Twenty-four hours after the last dose, blood was collected from the severed neck and the concentration of serum calcium determined as a measure of bone calcium mobilization. The first 10 cm of the intestine was also collected for intestinal calcium transport analysis using the everted gut sac method.

[2] = test system: 24-hydroxylase (24Ohase) gene promoter in ROS 17/2.8 (bone) cells; test: In vitro transcription assay (24-hydroxylase promoter luciferase reporter); format: cell-based; conditions: ROS 17/2.8 cells, sixteen hours after dosing, FIG. 3
Procedure: FIG. 3 is a graph comparing the in vitro transcription activity of (20S/24S) 2-MD2 with that of 1,25(OH)2D3.
Transcription activity was, measured in ROS 17/2.8 (bone) cells that were stably transfected with a 24-hydroxylase (24Ohase) gene promoter upstream of a luciferase reporter gene (Arbour et al., 1998). Cells were given a range of doses. Sixteen hours after dosing the cells were harvested and luciferase activities were measured using a luminometer. RLU=relative luciferase units.

[3] = test system: Human promyelocytic leukemia (HL60) cells; test: HL-60 cell differentiation (nitro blue tetrazolium reduction); format: cell-based; conditions: compared with 1,25(OH)2D3; four days; FIG. 2
Procedure: FIG. 2 is a graph comparing the percent HL-60 cell differentiation as a function of the concentration of (20S/24S) 2-MD2 with that of 1,25(OH)2D3.
The study drugs were dissolved in ethanol and the concentrations determined using UV spectrophotometry. Serial dilutions were prepared so that a range of drug concentrations could be tested without changing the final concentration of ethanol (≦0.2%) present in the cell cultures.
Human promyelocytic leukemia (HL60) cells were grown in RPMI-1640 medium containing 10% fetal bovine serum. The cells were incubated at 37° C. in the presence of 5% CO2.
HL60 cells were plated at 1.2×10^5 cells/ml. Eighteen hours after plating, cells in duplicate were treated with drug. Four days later, the cells were harvested and a nitro blue tetrazolium reduction assay was performed (Collins et al., 1979; J. Exp. Med. 149:969-974). The percentage of differentiated cells was determined by counting a total of 200 cells and recording the number that contained intracellular black-blue formazan deposits. Verification of differentiation to monocytic cells was determined by measuring phagocytic activity (data not shown).

[4] = biological target: T2, full-length recombinant rat vitamin D receptor (Rattus norvegicus, UniProt P13053); test: Vitamin D receptor competitive binding with [3H]-1,25-(OH)2-D3; conditions: competition with [3H]-1,25-(OH)2-D3; compared with 1,25(OH)2D3; FIG. 1
T2 construct: Full-length recombinant rat receptor was expressed in E. coli BL21(DE3) Codon Plus RIL cells; histidine tag (C); made in house; host or cells: E. coli BL21(DE3) Codon Plus RIL
T2 sequence (P13053 1-423): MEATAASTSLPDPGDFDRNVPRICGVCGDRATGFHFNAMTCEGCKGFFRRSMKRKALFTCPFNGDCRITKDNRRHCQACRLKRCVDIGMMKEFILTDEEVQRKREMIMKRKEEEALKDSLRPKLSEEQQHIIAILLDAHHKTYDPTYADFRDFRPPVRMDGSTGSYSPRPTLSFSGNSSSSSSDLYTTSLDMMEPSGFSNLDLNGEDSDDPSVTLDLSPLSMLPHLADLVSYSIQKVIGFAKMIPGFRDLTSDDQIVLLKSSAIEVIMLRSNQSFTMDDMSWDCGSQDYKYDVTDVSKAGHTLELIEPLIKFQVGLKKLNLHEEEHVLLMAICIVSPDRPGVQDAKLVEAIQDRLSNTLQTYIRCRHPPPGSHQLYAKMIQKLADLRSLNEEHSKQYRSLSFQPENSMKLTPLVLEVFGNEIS
Description: FIG. 1 is a graph comparing the relative activity of (20S/24S) 2-MD2 and 1,25(OH)2D3 to compete for binding with [^3H]-1,25-(OH)2-D3 to the full-length recombinant rat vitamin D receptor.
Full-length recombinant rat receptor was expressed in E. coli BL21(DE3) Codon Plus RIL cells and purified to homogeneity using two different column chromatography systems. The first system was a nickel affinity resin that utilizes the C-terminal histidine tag on this protein. The protein that was eluted from this resin was further purified using ion exchange chromatography (S-Sepharose Fast Flow). Aliquots of the purified protein were quick frozen in liquid nitrogen and stored at −80° C. until use. For use in binding assays, the protein was diluted in TEDK50 (50 mM Tris, 1.5 mM EDTA, pH 7.4, 5 mM DTT, 150 mM KCl) with 0.1% Chaps detergent. […]
Unlabeled ligands were dissolved in ethanol and the concentrations determined using UV spectrophotometry (1,25(OH)2D3:molar extinction coefficient=18,200 and λmax=265 nm; Analogs: molar extinction coefficient=42,000 and λmax=252 nm). […]
Radiolabeled and unlabeled ligands were added to 100 mcl of the diluted protein at a final ethanol concentration of ≦10%, mixed and incubated overnight on ice to reach binding equilibrium. […] Total binding was determined from the tubes containing only radiolabeled ligand.

[5] = test system: intestinal calcium transport; test: Intestinal calcium transport (everted gut sac method); format: in vivo, Sprague-Dawley rats; conditions: rats on 0.02% Ca diet, four consecutive ip doses, FIG. 5
Description: as §1, with “FIG. 5 is a” for “FIG. 4 is a”, “comparing the intestinal calcium transport” for “comparing the bone calcium mobilization”, “intestinal calcium transport activity of” for “bone calcium mobilization activity of”

In the case of “1α-hydroxy-2-methylene-19-nor-(20S)-homopregnacalciferol”, the cell differentiation activity (cell differentiation) is given as “relatively high”, the “binding activity to vitamin D receptors” value (vitamin D receptors) is given as “relatively high” and the “calcemic activity as compared to 1α,25-dihydroxyvitamin D3” value (calcemic activity) is given as “little if any”.

In the case of “1α-hydroxy-2-methylene-19-nor-bishomopregnacalciferol”, the cell differentiation activity (cell differentiation) is given as “relatively high”, the “binding activity to vitamin D receptors” value (vitamin D receptors) is given as “relatively high” and the “calcemic activity as compared to 1α,25-dihydroxyvitamin D3” value (calcemic activity) is given as “little if any”.

In the case of `C=C1[C@H](O)CC(=C/C=C2\CCC[C@]3(C)C([C@@H](C)/C=C/[C@H](C)C(C)(C)O)CC[C@@H]23)C[C@H]1O` (stereo in doubt) [2-methylene-19-nor-(20S-24S)-1α,25-dihydroxyvitamin D2], the “bone calcium mobilizing activity” value [1] is reported as “comparable to 1,25(OH)2D3”, the “causing transcription relative to 1,25-(OH)2D3” value [2] is reported as “slightly more effective than 1,25-(OH)2D3” and the “inducing differentiation of HL-60 cells relative to native hormone” value [3] is reported as “almost equal to the native hormone”. The “binding to the vitamin D receptor relative to native hormone” value [4] was “almost equal to the native hormone” and the intestinal calcium transport [5] was “does retain some ability to elevate intestinal calcium transport”.

In the case of `C=C1[C@H](O)CC(=C/C=C2\CCC[C@]3(C)[C@@H](CC)CC[C@@H]23)C[C@H]1O` [1α-Hydroxy-2-methylene-19-nor-pregnacalciferol], the cell differentiation activity (cell differentiation) is given as “relatively high”, the “binding activity to vitamin D receptors” value (vitamin D receptors) is given as “relatively high” and the “calcemic activity as compared to 1α,25-dihydroxyvitamin D3” value (calcemic activity) is given as “little if any”.
